# Source: publication PMC12081876, “Identification of PTGR2 inhibitors as a new therapeutic strategy for diabetes and obesity” (EMBO Molecular Medicine, 2025)
# Values joined by “and” are separate entries in the source; they are usually repeats but may differ in a detail not shown here. Equal values may be shown once.
# Tests used:
# [1] = tested on: differentiated 3T3-L1 adipocytes; assay: Insulin-stimulated glucose uptake assay by (3H)2-deoxyglucose; format: cell-based, mouse; parameters: insulin-stimulated glucose uptake, Fig 1J replicates / Figure 5E raw value, insulin-stimulated glucose uptake (replicates): unit not given here
# Procedure: The cell lines, which were tested for mycoplasma contamination and authenticated, were purchased from the Bioresource Collection and Research Center, Taiwan. All cells were cultured at 37 °C, 5% CO2 in a humidified incubator. HEK293T cells were maintained in DMEM (cat. no. SH30003.02, HyClone) supplemented with 10% fetal bovine serum (FBS) (cat. no. 04-001-1A, Biological Industries) and 1% antibiotic/antimycotic solution (cat. no. SV30079.01, HyClone). 3T3-L1 preadipocytes were maintained at ~70% confluence in DMEM with 10% calf serum (cat. no. 16170078, Gibco) and 1% antibiotic/antimycotic solution. For adipocyte differentiation, confluent 3T3-L1 cells (defined as day 0) were exposed to an induction medium containing 10% FBS, 1 μM dexamethasone (cat. no. D4902, Sigma-Aldrich), and 1 μg/ml insulin (Humulin R, Eli Lilly) in DMEM with or without 0.5 mM isobutyl-methylxanthine (cat. no. sc-201188A, Santa Cruz Biotechnology) as indicated. After two days, the medium was replaced with DMEM containing 10% FBS and 1 μg/ml insulin and was replenished every two days until assay.
# Differentiated 3T3-L1 cells were starved with serum-free DMEM containing 0.2% BSA (cat. no. A9647, Sigma-Aldrich). Cells were rinsed twice with KRH buffer (137 mM NaCl, 4.7 mM KCl, 1.85 mM CaCl2, 1.3 mM MgSO4, 50 mM HEPES and 0.1% BSA, pH 7.4), and treated with or without […] insulin in the presence of 20 μM cytochalasin B (cat. no. 11328, Cayman Chemical), a GLUT inhibitor for measuring non-specific glucose uptake, for 30 min. Cells were then incubated with 0.5 μCi [^3H]-2-deoxy-D-Glucose (cat. no. NET328A001MC, PerkinElmer) and 0.1 μM 2-deoxy-D-Glucose (2DG) (cat. no. 14325, Cayman Chemical) for 5 min. Uptake of 2DG was terminated by rapidly removing medium and washing with ice-cold PBS three times. Cells were lysed with 0.1% SDS, and the radioactivity was measured using a liquid scintillation counter. Insulin-mediated glucose uptake was calculated by subtracting insulin-treated glucose uptake with basal glucose uptake.
# [2] = tested on: HFHSD-fed obese C57BL6/J mice; assay: Insulin tolerance test (ITT); format: in vivo, mouse; parameters: Figure 2I Average (glucose, ITT) / ITT / ITT glucose, Average / Blood glucose during insulin tolerance test (Figure 5M), Average: unit not given here; conditions: 100 mg/kg/day
# Procedure: (§1) Glucose tolerance was evaluated by the oral (OGTT) and intraperitoneal glucose tolerance test (ipGTT) after a 6-h fast. For the OGTT, glucose water (1 mg/g) was given by oral gavage, and tail blood glucose was measured with a glucometer (ACCU-CHEK Performa, Roche) at 0, 15, 30, 45, 60, 90, and 120 min. For the ipGTT, tail blood glucose was measured at 0, 15, 30, 45, 60, 90, and 120 min after intraperitoneal injection of glucose water (1 mg/g). For the insulin tolerance test (ITT), mice were fasted for 4 h and then injected intraperitoneally with 1 U/kg of insulin (Humulin R, Eli Lilly). Tail blood glucose was measured at 0, 15, 30, 45, 60, 90, 120, and 180 min.
# [3] = tested on: HFHSD-fed obese C57BL6/J mice; assay: Intraperitoneal glucose tolerance test (ipGTT); format: in vivo, mouse; parameters: Figure 2H Average (glucose, ipGTT) / ipGTT / ipGTT glucose, Average / Blood glucose during glucose tolerance test (Figure 5L), Average: unit not given here; conditions: 100 mg/kg/day
# Procedure: as §1
# [4] = tested on: HFHSD-fed obese C57BL6/J mice; assay: Body weight / diet-induced obesity in HFHSD-fed mice; format: in vivo, mouse; conditions: Figure 5J, 100 mg/kg/day, in g (unit assumed)
smiles,measurement,setting,value
"CCCCCC(=O)CC[C@H]1[C@H](O)CC(=O)[C@@H]1C/C=C\CCCC(=O)O [13,14-dihydro-15-keto-PGE2]","insulin-stimulated glucose uptake, Fig 1J replicates","[1]; 13,14dh-15kPGE2 5",2.459 and 1.953 and 1.121 and 1.067
same,insulin-stimulated glucose uptake,[1]; differentiated 3T3-L1 adipocytes,showed little effect
Cc1[nH]c2nc(C(C)N3CCN(c4ccccc4)CC3)nn2c(=O)c1Cc1ccc(F)cc1 (stereo not shown) [BPRPT245],"Blood glucose during insulin tolerance test (Figure 5M), Average",[2]; time 0,210.867
same,"Blood glucose during insulin tolerance test (Figure 5M), Average",[2]; time 15,143.067
same,"Blood glucose during insulin tolerance test (Figure 5M), Average",[2]; time 30,94.067
same,"Blood glucose during insulin tolerance test (Figure 5M), Average",[2]; time 45,78.667
same,"Blood glucose during insulin tolerance test (Figure 5M), Average",[2]; time 60,69.8
same,"Blood glucose during insulin tolerance test (Figure 5M), Average",[2]; time 90,59.667
same,"Blood glucose during insulin tolerance test (Figure 5M), Average",[2]; time 120,71.467
same,"Blood glucose during insulin tolerance test (Figure 5M), Average",[2]; time 180,90.933
same,"Blood glucose during glucose tolerance test (Figure 5L), Average",[3]; time 0,153.667
same,"Blood glucose during glucose tolerance test (Figure 5L), Average",[3]; time 15,305
same,"Blood glucose during glucose tolerance test (Figure 5L), Average",[3]; time 30,285.933
same,"Blood glucose during glucose tolerance test (Figure 5L), Average",[3]; time 45,242.333
same,"Blood glucose during glucose tolerance test (Figure 5L), Average",[3]; time 60,219.733
same,"Blood glucose during glucose tolerance test (Figure 5L), Average",[3]; time 90,192.133
same,"Blood glucose during glucose tolerance test (Figure 5L), Average",[3]; time 120,185.4
same,"Body weight, Average",[4]; week 0,30.59
same,"Body weight, Average",[4]; week 1,31.2
same,"Body weight, Average",[4]; week 2,31.673
same,"Body weight, Average",[4]; week 3,32.167
same,"Body weight, Average",[4]; week 4,32.92
same,"Body weight, Average",[4]; week 5,32.837
same,"Body weight, Average",[4]; week 6,33.673
same,"Body weight, Average",[4]; week 7,33.323
same,"Body weight, Average",[4]; week 8,33.923
same,"Body weight, Average",[4]; week 9,34.59
same,"Body weight, Average",[4]; week 10,35.623
same,"Body weight, Average",[4]; week 11,36.193
same,"Body weight, Average",[4]; week 12,37.113
same,"Body weight, Average",[4]; week 13,36.957
same,"Body weight, Average",[4]; week 14,38.33
same,"Body weight, Average",[4]; week 15,38.607
same,"Body weight, Average",[4]; week 16,39.303
same,"Body weight, Average",[4]; week 17,40.533
same,"Body weight, Average",[4]; week 18,40.933
same,"Body weight, Average",[4]; week 19,42.11
same,"Body weight, Average",[4]; week 20,41.483
same,"Body weight, Average",[4]; week 21,42.933
same,"Body weight, Average",[4]; week 22,43.33
same,"Body weight, Average",[4]; week 23,44.06
same,"Body weight, Average",[4]; week 24,44.36
same,"Body weight, Average",[4]; week 25,45.28
